Source: the NIST ThermoML archive (doi:10.1016/j.fluid.2018.04.020)
Numbers after ± are expanded uncertainties.

Details: 101.33 kPa, Liquid, Vibrating tube method

SMILES	mass density (293.15 K) [kg/m3]	mass density (303.15 K) [kg/m3]	mass density (313.15 K) [kg/m3]	mass density (323.15 K) [kg/m3]
CCCC[N+]1(C)CCCC1.N#CC(=C=[N-])C#N [1-butyl-1-methylpyrrolidinium tricyanomethanide]	1008.9 ± 2.2	1003 ± 2.1	997.3 ± 2.1	991.4 ± 2.1
CCCC[n+]1ccc(C)cc1.N#CC(=C=[N-])C#N [1-butyl-4-methylpyridinium tricyanomethanide]	1038.3 ± 2.2	1032.1 ± 2.2	1025.7 ± 2.2	1019.7 ± 2.2
